# Data as given in PMC7377239, “Cardiovascular Effects of Polychlorinated Biphenyls and Their Major Metabolites” (Environmental Health Perspectives, 2020).
# Counter-ions that a name gives are not always drawn. Like-named read-outs stand apart in the source and are kept apart here.
# Assays:
# [1] = system: iCell cardiomyocytes (human iPSC-derived cardiomyocytes); assay: High-content imaging of cytotoxicity and mitochondrial integrity in iPSC-CMs; assay type: cell-based; details: Homo sapiens; for viability at 0.01 µM / activity at 0.01 µM / viability at 0.1 µM / activity at 0.1 µM / viability at 1 µM / activity at 1 µM / viability at 10 µM / activity at 10 µM / viability at 100 µM / activity at 100 µM: Cardiomyocyte, 0.00 µM = 100.00; for viability at 0.1 µM / activity at 0.1 µM: 0.10 µM; for minimal effective concentration: iPSC-CM
# Summary of the method: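 Human iPSC-derived cardiomyocytes were seeded on gelatin-coated 384-well plates at 5,000 cells per well and maintained for 12 d. Test chemicals were added as 10μL of 5× solutions to final concentrations of 0.01 to 100μM. Cells were stained with Hoechst 33342 and MitoTracker™ Orange, fixed in formaldehyde, and imaged by confocal high-content microscopy at 10× magnification.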
# [2] = system: HUVECs; assay: High-content imaging cytotoxicity in HUVECs, 24 h; assay type: cell-based, human; details: Homo sapiens, HUVEC, 24 h, HUVECs; for viability at 0.01 µM / activity at 0.01 µM / viability at 0.1 µM / activity at 0.1 µM / viability at 1 µM / activity at 1 µM / viability at 10 µM / activity at 10 µM / viability at 100 µM / activity at 100 µM: 0.00 µM = 100.00; for viability at 0.1 µM / activity at 0.1 µM: 0.10 µM; for minimal effective concentration: top concentration 100.00 µM
# Summary of the method: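 HUVECs (passages 1–5) were plated at 750 cells/well without fibronectin, grown to a monolayer (3–5 d) and exposed to compounds for 24 h at 37°C, 5% CO2. Hoechst 33342, MitoTracker Orange and calcein AM staining was imaged at 10×; readouts were normalized to 0.5% DMSO vehicle and fit to a four-parameter logistic model.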
# [3] = 24 hr, read-out: huvec.cyto.24hr
# [4] = 24 hr, read-out: huvec.mito.24hr
# [5] = 24 hr, read-out: huvec.mitoint.24hr
# [6] = 24 hr, read-out: huvec.nma.24hr
# [7] = 24 hrs, read-out: huvec.tc.24hrs
smiles,measurement,setting,value
O=S(=O)(O)Oc1cc(-c2ccccc2)ccc1Cl [3-yl PCB 3 sulfate],viability at 0.01 µM,"[1]; 1.5 h, read-out: cm.cam.90min",100%
same,activity at 0.01 µM,"[1]; 1.5 h, read-out: cm.mii.90min",110%
same,activity at 0.01 µM,"[1]; 1.5 h, read-out: cm.mito.90min",100%
same,viability at 0.01 µM,"[1]; 1.5 h, read-out: cm.tc.90min",101%
same,viability at 0.1 µM,"[1]; 1.5 h, read-out: cm.cam.90min",97.4%
same,activity at 0.1 µM,"[1]; 1.5 h, read-out: cm.mii.90min",109%
same,activity at 0.1 µM,"[1]; 1.5 h, read-out: cm.mito.90min",97.4%
same,viability at 0.1 µM,"[1]; 1.5 h, read-out: cm.tc.90min",97.6%
same,viability at 1 µM,"[1]; 1.5 h, read-out: cm.cam.90min",104%
same,activity at 1 µM,"[1]; 1.5 h, read-out: cm.mii.90min",106%
same,activity at 1 µM,"[1]; 1.5 h, read-out: cm.mito.90min",104%
same,viability at 1 µM,"[1]; 1.5 h, read-out: cm.tc.90min",104%
same,viability at 10 µM,"[1]; 1.5 h, read-out: cm.cam.90min",106%
same,activity at 10 µM,"[1]; 1.5 h, read-out: cm.mii.90min",98.4%
same,activity at 10 µM,"[1]; 1.5 h, read-out: cm.mito.90min",106%
same,viability at 10 µM,"[1]; 1.5 h, read-out: cm.tc.90min",106%
same,viability at 100 µM,"[1]; 1.5 h, read-out: cm.cam.90min",104%
same,activity at 100 µM,"[1]; 1.5 h, read-out: cm.mii.90min",108%
same,activity at 100 µM,"[1]; 1.5 h, read-out: cm.mito.90min",104%
same,viability at 100 µM,"[1]; 1.5 h, read-out: cm.tc.90min",104%
same,viability at 0.01 µM,"[1]; 24 h, read-out: cm.cam.24hrs",87.7%
same,activity at 0.01 µM,"[1]; 24 h, read-out: cm.mii.24hrs",113%
same,activity at 0.01 µM,"[1]; 24 h, read-out: cm.mito.24hrs",86%
same,viability at 0.01 µM,"[1]; 24 h, read-out: cm.tc.24hrs",88.2%
same,viability at 0.1 µM,"[1]; 24 h, read-out: cm.cam.24hrs",99.9%
same,activity at 0.1 µM,"[1]; 24 h, read-out: cm.mii.24hrs",109%
same,activity at 0.1 µM,"[1]; 24 h, read-out: cm.mito.24hrs",99.5%
same,viability at 0.1 µM,"[1]; 24 h, read-out: cm.tc.24hrs",101%
same,viability at 1 µM,"[1]; 24 h, read-out: cm.cam.24hrs",96.5%
same,activity at 1 µM,"[1]; 24 h, read-out: cm.mii.24hrs",102%
same,activity at 1 µM,"[1]; 24 h, read-out: cm.mito.24hrs",93.7%
same,viability at 1 µM,"[1]; 24 h, read-out: cm.tc.24hrs",96.4%
same,viability at 10 µM,"[1]; 24 h, read-out: cm.cam.24hrs",91.9%
same,activity at 10 µM,"[1]; 24 h, read-out: cm.mii.24hrs",89.9%
same,activity at 10 µM,"[1]; 24 h, read-out: cm.mito.24hrs",88.6%
same,viability at 10 µM,"[1]; 24 h, read-out: cm.tc.24hrs",92.3%
same,viability at 100 µM,"[1]; 24 h, read-out: cm.cam.24hrs",96.9%
same,activity at 100 µM,"[1]; 24 h, read-out: cm.mii.24hrs",83.9%
same,activity at 100 µM,"[1]; 24 h, read-out: cm.mito.24hrs",97.6%
same,viability at 100 µM,"[1]; 24 h, read-out: cm.tc.24hrs",97.8%
same,minimal effective concentration,"[1]; 1.5 h, read-out: cm.cam.90min POD",100 µM
same,minimal effective concentration,"[1]; 1.5 h, read-out: cm.mii.90min POD",100 µM
same,minimal effective concentration,"[1]; 1.5 h, read-out: cm.mito.90min POD",100 µM
same,minimal effective concentration,"[1]; 1.5 h, read-out: cm.tc.90min POD",100 µM
same,minimal effective concentration,"[1]; 24 h, read-out: cm.cam.24hrs POD",100 µM
same,minimal effective concentration,"[1]; 24 h, read-out: cm.mii.24hrs POD",22.8 µM
same,minimal effective concentration,"[1]; 24 h, read-out: cm.mito.24hrs POD",100 µM
same,minimal effective concentration,"[1]; 24 h, read-out: cm.tc.24hrs POD",100 µM
same,viability at 0.01 µM,[2]; [3],78.2%
same,activity at 0.01 µM,[2]; [4],77.8%
same,activity at 0.01 µM,[2]; [5],93.6%
same,activity at 0.01 µM,[2]; [6],96.6%
same,viability at 0.1 µM,[2]; [3],95.5%
same,activity at 0.1 µM,[2]; [4],95.5%
same,activity at 0.1 µM,[2]; [5],110%
same,activity at 0.1 µM,[2]; [6],102%
same,viability at 1 µM,[2]; [3],95.1%
same,activity at 1 µM,[2]; [4],94%
same,activity at 1 µM,[2]; [5],93.8%
same,activity at 1 µM,[2]; [6],95.5%
same,viability at 10 µM,[2]; [3],91.1%
same,activity at 10 µM,[2]; [4],89.7%
same,activity at 10 µM,[2]; [5],80.7%
same,activity at 10 µM,[2]; [6],93.3%
same,viability at 100 µM,[2]; [3],98.8%
same,activity at 100 µM,[2]; [4],97.9%
same,activity at 100 µM,[2]; [5],105%
same,activity at 100 µM,[2]; [6],96%
same,minimal effective concentration,"[2]; 24 hr, read-out: huvec.cyto.24hr POD",100 µM
same,minimal effective concentration,"[2]; 24 hr, read-out: huvec.mito.24hr POD",100 µM
same,minimal effective concentration,"[2]; 24 hr, read-out: huvec.mitoint.24hr POD",100 µM
same,minimal effective concentration,"[2]; 24 hr, read-out: huvec.nma.24hr POD",100 µM
same,viability at 0.01 µM,[2]; [7],78.4%
same,viability at 0.1 µM,[2]; [7],95.5%
same,viability at 1 µM,[2]; [7],95.1%
same,viability at 10 µM,[2]; [7],91.1%
same,viability at 100 µM,[2]; [7],98.8%
same,minimal effective concentration,"[2]; 24 hrs, read-out: huvec.tc.24hrs POD",100 µM
